Results taken from patent publication US7357913B2, “Methods for detecting, prognosing, or monitoring a disorder by comparing relative flux rates of two or more biological molecules in vivo” (The Regents of the University of California, priority 2003, dated 2008).
“Also recorded” adds a separate entry of the source.

Tests used:
[1] = system: mouse bone marrow cells; assay: Bone marrow cell proliferation in nude mice, paclitaxel; format: in vivo; details: SW1573, increasing doses, 2H2O labeling 24 hours
Experimental: (§1) Nude mice were implanted with human SW1573 lung cancer cells (5×10^6 cells/animal), injected with varying doses of paclitaxel, and labeled with ^2H2O for 24 hours. Both vehicle (1:1 [v/v] solution of ethanol:cremephor EL) and paclitaxel stock (dissolved in 1:1 v/v solution of ethanol:cremephor EL) were diluted 1:6, prior to injection into animals, with sterile 0.1 M Phosphate Buffered Saline (PBS). Tumor cells and bone marrow cells were removed using techniques well known in the art and as described, supra.
(§2) Colonocytes were removed as follows: The colon was removed from animals and washed with 0.1 M Phosphate Buffered Saline (PBS), cut open, and incubated in PBS containing collagenase type2 (72 mg/mL) and DNase (10 μg/mL) at 37° C., gently shaken for 40 minutes. After incubation, tissue was gently scraped and cells were collected by centrifugation at 800×g for 5 minutes at 4° C. The pellet was homogenously suspended in 45% percoll in 1.6% JMEM medium. The suspension was applied on top of a 5 mL cushion of 45% (v/v) percoll in a 75% percoll gradient and centrifuged at 350×g for 30 minutes at room temperature. Colonocytes were collected and washed twice with PBS. Debris was then separated from the cell suspension using a […] filter. […] FIG. 11 depicts the results.

[2] = system: mouse colon cells (colonocytes); assay: Colonocyte proliferation in nude mice, paclitaxel; format: in vivo; details: SW1573, increasing doses, 2H2O labeling 24 hours
Experimental: as §1, §2

[3] = system: human SW1573 lung cancer cells; assay: Tumor cell proliferation in nude mice with SW1573 cells, paclitaxel; format: in vivo; details: increasing doses, 2H2O labeling 24 hours
Experimental: as §1, §2

[4] = system: liver collagen; assay: Liver collagen synthesis (turnover) after griseofulvin in chow; format: in vivo, mouse; details: C57BL/6 mice, doses tested, 5 days (data not shown)
Experimental: (§3) Cell proliferation and collagen synthesis (turnover) were also assessed concurrently (i.e., simultaneously) in mice (C57BL/6 and Balb/c) fed griseofulvin. Griseofulvin is recognized as a hepatotoxin, inducing cell proliferation and porphyria. Mice were administered griseofulvin in their chow (1% w/w) for 5 days.

[5] = system: liver cell; assay: Liver cell proliferation after griseofulvin in chow; details: C57BL/6 mice, below the no observable effect level, 5 days
Experimental: as §3

Structure (SMILES) | bone marrow cell proliferation relative to vehicle controls [1] | colonocyte proliferation relative to vehicle controls [2] | tumor cell proliferation relative to vehicle controls [3] | liver collagen synthesis (collagen turnover) [4] | liver cell proliferation, lowest dose / levels below the NOEL [5]
CC(=O)O[C@H]1C(=O)[C@@]2(C)[C@H]([C@H](OC(=O)c3ccccc3)[C@]3(O)C[C@H](OC(=O)[C@H](O)[C@@H](NC(=O)c4ccccc4)c4ccccc4)C(C)=C1C3(C)C)[C@]1(OC(C)=O)CO[C@@H]1C[C@@H]2O [paclitaxel] | little or no effect | inhibitory effect, in a dose-dependent manner; also recorded: inhibited, in a dose-dependent manner | inhibitory effect, in a dose-dependent manner; also recorded: inhibited, in a dose-dependent manner | – | –
COC1=CC(=O)C[C@@H](C)[C@]12Oc1c(Cl)c(OC)cc(OC)c1C2=O [griseofulvin] | – | – | – | no increase; also recorded: no effect | pronounced effects and dose responsiveness; also recorded: observable effect
